Results reported in patent US20210395327A1, “Growth Hormone-Releasing Hormone Antagonists and Uses Thereof” (United States Government As Represented By The Department …, priority 2019, published 2021).
“Also recorded” adds a separate entry of the source. Like-named read-outs stand apart in the source and are kept apart here. Non-standard residues stand in square brackets, D forms with d. Residues, ends and D or L forms follow the SMILES beside them. *: point of attachment. Phenylacetyl(2,3,4,5,6-F5) = O=C(Cc1c(F)c(F)c(F)c(F)c1F)*; Phe(F5) = N[C@@H](Cc1c(F)c(F)c(F)c(F)c1F)C(=O)O; Phe(4-Cl) = N[C@@H](Cc1ccc(Cl)cc1)C(=O)O; hArg = N=C(N)NCCCC[C@H](N)C(=O)O; 12Ado = NCCCCCCCCCCCC(=O)O; Nle = CCCC[C@H](N)C(=O)O; Orn = NCCC[C@H](N)C(=O)O; Abu = CC[C@H](N)C(=O)O; PhAc = O=C(Cc1ccccc1)*; Aoc = NCCCCCCCC(=O)O

Key:
[1] = system: HCC827 lung cancer cells; experiment: In vitro cell viability, HCC827; assay type: cell-based, human; conditions: antagonist 5 μM for 72 h, cell proliferation assay; MIA602 = 1
Procedure: (§1) The inhibitory effects of the various synthesized GHRH antagonists were tested in cell proliferation assays in various human cancer cell lines including stomach cancer (KATOIII, N87), colon cancer (HT-29), urothelial cancer (J82, RT4), pancreatic cancer (PANC-1, CFPAC-1), prostatic cancer (PC3), breast cancer (MX-1, HCC1806), ovarian cancer (SK-OV-3, OVCAR-3) and lung cancer (HCC827, H460).
(§2) Cell culture. Human cancer cell lines including pancreatic (PANC-1 and CFPAC-1), lung (HCC827 and H460), stomach (NCI-N87 and KATOIII), urothelial (J82, RT4), prostatic (PC3), breast (MX-1 and HCC 1806), colorectal (HT-29), and ovarian (SK-OV-3 and OVCAR-3) were obtained from the American Type Culture Collection (ATCC) and cultured at 37° C. in a humidified 95% air/5% CO2 atmosphere in the medium recommended by ATCC.
(§3) In vitro cell viability. Cell viability was analyzed as follows: cancer cells including pancreatic (PANC-1 and CFPAC-1), lung (HCC827 and H460), stomach (NCI-N87 and KATOIII), urothelial (J82, RT4), prostatic (PC3) and breast (MX-1 and HCC 1806), colorectal (HT-29) and ovarian (SK-OV-3 and OVCAR-3) were grown on 96 well plates to ˜60% confluence, the cells were starved for 24 h in culture medium containing 0.5% FBS. Cells were then treated with GHRH antagonists MIA602 AVR compounds at concentrations of 1, 2.5 or 5 μM, or vehicle (0.1% DMSO) in quintuplicates for 72 hours. The medium was replaced every 48 hours. Cell viability was measured using CellTiter 96 aqueous one solution kit (Promega). Inhibitory effects of tested AVR compounds in comparison to that of MIA602 are presented as inhibitory potency.
(§4) Inhibitory effects of selected AVR compounds in comparison to that of MIA602 are presented as inhibitory potency (e.g., percentage of inhibition). […] The cell lines tested including lung cancer HCC827 (FIG. 2A), pancreatic cancer CFPAC-1 (FIG. 2B), stomach cancer N87 (FIG. 2C), colon cancer HT-29 (FIG. 2D), breast cancers MX-1 and HCC1806 (FIGS. 2 E, F). Based on the results of cell proliferation assay after cancer cells were treated with antagonist at concentration of 5 μM for 72H, the relative inhibitory potency of AVR antagonists in comparison to MIA-602 is summarized in Table 3 A and B. Over 60 AVR compounds were tested in 12 cancer cell lines.
(§5) Based on the results of cell proliferation assay after cancer cells were treated with antagonist at concentration of 5 µM for 72H, * at concentration of 2 µM for 72 H.

[2] = system: CFPAC-1 pancreatic cancer cells; experiment: In vitro cell viability, CFPAC-1; assay type: cell-based, human; conditions: antagonist 5 μM for 72 h, cell proliferation assay; MIA602 = 1
Procedure: as §1, §2, §3, §4, §5

[3] = target: T1, membrane GHRH-receptors on human anterior pituitary cells (Homo sapiens, UniProt Q02643); experiment: Receptor binding, displacement of 125I-[His1,Nle27]-hGH-RH(1-32)NH2 on human pituitary membranes
T1 construct: Human pituitary was purchased from the National Hormone and Peptide Program; tissue National Hormone and Peptide Program; host or cells: human pituitary (membrane fractions)
T1 sequence (Q02643 23-423): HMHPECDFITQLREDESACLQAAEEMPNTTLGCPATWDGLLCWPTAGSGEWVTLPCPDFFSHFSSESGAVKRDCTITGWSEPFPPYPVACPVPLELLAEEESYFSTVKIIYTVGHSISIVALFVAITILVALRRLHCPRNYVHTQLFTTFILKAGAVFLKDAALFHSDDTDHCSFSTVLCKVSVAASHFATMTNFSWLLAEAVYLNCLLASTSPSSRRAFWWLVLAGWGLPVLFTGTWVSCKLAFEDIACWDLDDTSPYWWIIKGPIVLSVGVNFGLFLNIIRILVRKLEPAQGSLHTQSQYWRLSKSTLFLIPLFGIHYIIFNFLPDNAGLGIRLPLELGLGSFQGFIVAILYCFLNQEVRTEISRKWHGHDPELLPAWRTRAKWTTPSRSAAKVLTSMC
Procedure: Receptor binding affinities in vitro. Preparation of human pituitary membrane fractions and receptor binding of analogs of GH-RH were performed (Halmos G, Rekasi Z, Szoke B, Schally A V. (1993) Receptor 3:87-97). Human pituitary was purchased from the National Hormone and Peptide Program. […] Relative affinities compared to hGH-RH(1-29)NH2 were calculated as the ratio of IC50 (dose causing 50% inhibition of specific binding to receptors) of the tested peptides to the IC50 of hGH-RH(1-29)NH2. The values were calculated from technical duplicate tubes.
Nineteen new AVR analogs of GHRH were tested in the receptor binding assay. Table 6 presents the IC50 values of GHRH antagonists to membrane GHRH-receptors binding on human anterior pituitary cells.

[4] = system: KATOIII stomach cancer cells; experiment: In vitro cell viability, KATOIII; assay type: cell-based, human; conditions: antagonist 5 μM for 72 h, cell proliferation assay; MIA602 = 1
Procedure: as §1, §2, §3, §4

[5] = membrane receptors on human anterior pituitary cells, mean of two to three determinations, read-out: IC50

IC50 [3, 5] [nM]	SMILES	relative inhibitory potency in comparison to MIA-602, Lung IICC827 [1]	relative inhibitory potency in comparison to MIA-602, Pancreatic CFPAC-1 [2]	relative inhibitory potency in comparison to MIA-602, Stomach KATOIII [4]	IC50 [3] [nM]	binding affinity to membrane receptors of human pituitary cells (in words) ([3]; competitive binding, human pituitary membrane fractions)
	CCCC[C@H](NC(=O)[C@@H](NC(=O)[C@H](CC(=O)O)NC(=O)[C@H](CCC(N)=O)NC(=O)[C@H](CC(C)C)NC(=O)[C@H](CC(C)C)NC(=O)[C@H](CCCN)NC(=O)[C@H](Cc1c[nH]cn1)NC(=O)[C@H](C)NC(=O)[C@H](CO)NC(=O)[C@H](CC(C)C)NC(=O)[C@H](CCC(N)=O)NC(=O)[C@H](CC)NC(=O)[C@H](CC(C)C)NC(=O)[C@@H](NC(=O)[C@H](CCCN)NC(=O)[C@H](Cc1c[nH]cn1)NC(=O)[C@H](Cc1c(F)c(F)c(F)c(F)c1F)NC(=O)[C@H](CCCCNC(=N)N)NC(=O)[C@H](C)NC(=O)[C@@H](NC(=O)[C@H](Cc1ccc(Cl)cc1)NC(=O)[C@@H](NC(=O)[C@H](C)NC(=O)[C@H](CC(=O)O)NC(=O)[C@@H](CCCNC(=N)N)NC(=O)[C@H](Cc1ccc(O)cc1)NC(=O)CCCCCCCCCCCNC(=O)Cc1c(F)c(F)c(F)c(F)c1F)[C@@H](C)CC)[C@@H](C)O)C(C)C)[C@@H](C)CC)C(=O)N[C@H](CCCNC(=N)N)C(=O)N[C@@H](CCCCNC(=N)N)C(=O)NC [AVR-542, 5FPhAC-Ada-Tyr-DArg-Asp-Ala-Ile-Cpa-Thr-Ala-Har-5FPhe-His-Orn-Val-Leu-Abu-Gln-Leu-Ser-Ala-His-Orn-Leu-Leu-Gln-Asp-Ile-Nle-DArg-Har-NHCH3] ({Phenylacetyl(2,3,4,5,6-F5)-12Ado}-Y[dR]DAI[Phe(4-Cl)]TA[hArg][Phe(F5)]H[Orn]VL[Abu]QLSAH[Orn]LLQDI[Nle][dR][hArg]-NHMe)	2.649	1.312			
0.25	CCCC[C@H](NC(=O)[C@@H](NC(=O)[C@H](CC(=O)O)NC(=O)[C@H](CCC(N)=O)NC(=O)[C@H](CC(C)C)NC(=O)[C@H](CC(C)C)NC(=O)[C@H](CCCCN)NC(=O)[C@H](CCCNC(=N)N)NC(=O)[C@H](C)NC(=O)[C@H](CO)NC(=O)[C@H](CC(C)C)NC(=O)[C@H](CCC(N)=O)NC(=O)[C@H](CC)NC(=O)[C@H](CC(C)C)NC(=O)[C@@H](NC(=O)[C@H](CCCCN)NC(=O)[C@H](CCCNC(=N)N)NC(=O)[C@H](Cc1ccc(OC)cc1)NC(=O)[C@H](CCCCNC(=N)N)NC(=O)[C@H](CC(N)=O)NC(=O)[C@@H](NC(=O)[C@H](Cc1ccc(Cl)cc1)NC(=O)[C@@H](NC(=O)[C@H](C)NC(=O)[C@H](CC(=O)O)NC(=O)[C@@H](CCCNC(=N)N)NC(=O)[C@H](Cc1ccc(O)cc1)NC(=O)CCCCCCCCCCCNC(=O)Cc1c(F)c(F)c(F)c(F)c1F)[C@@H](C)CC)[C@@H](C)O)C(C)C)[C@@H](C)CC)C(=O)N[C@H](CCCNC(=N)N)C(=O)N[C@@H](CCCCNC(=N)N)C(=O)NCCCCCCCC(=O)NC [AVR-322, 5FPhAC-Ada-Tyr-DArg-Asp-Ala-Ile-Cpa-Thr-Asn-Har-Tyr(Me)-Arg-Lys-Val-Leu-Abu-Gln-Leu-Ser-Ala-Arg-Lys-Leu-Leu-Gln-Asp-Ile-Nle-DArg-Har-Aoc-NHCH3] ({Phenylacetyl(2,3,4,5,6-F5)-12Ado}-Y[dR]DAI[Phe(4-Cl)]TN[hArg]Y(Me)RKVL[Abu]QLSARKLLQDI[Nle][dR][hArg][Aoc]-NHMe)			1.296		
	CCCC[C@H](NC(=O)[C@@H](NC(=O)[C@H](CC(=O)O)NC(=O)[C@H](CCC(N)=O)NC(=O)[C@H](CC(C)C)NC(=O)[C@H](CC(C)C)NC(=O)[C@H](CCCN)NC(=O)[C@H](Cc1c[nH]cn1)NC(=O)[C@H](C)NC(=O)[C@H](CO)NC(=O)[C@H](CC(C)C)NC(=O)[C@H](CCC(N)=O)NC(=O)[C@H](CC)NC(=O)[C@H](CC(C)C)NC(=O)[C@@H](NC(=O)[C@H](CCCN)NC(=O)[C@H](Cc1c[nH]cn1)NC(=O)[C@H](Cc1c(F)c(F)c(F)c(F)c1F)NC(=O)[C@H](CCCCNC(=N)N)NC(=O)[C@H](C)NC(=O)[C@@H](NC(=O)[C@H](Cc1ccc(Cl)cc1)NC(=O)[C@@H](NC(=O)[C@H](C)NC(=O)[C@H](CC(=O)O)NC(=O)[C@@H](CCCNC(=N)N)NC(=O)[C@H](Cc1ccc(O)cc1)NC(=O)CCCCCCCCCCCNC(=O)Cc1ccccc1)[C@@H](C)CC)[C@@H](C)O)C(C)C)[C@@H](C)CC)C(=O)N[C@H](CCCNC(=N)N)C(=O)N[C@@H](CCCCNC(=N)N)C(N)=O [MIA-690, reference compound] ({PhAc-12Ado}-Y[dR]DAI[Phe(4-Cl)]TA[hArg][Phe(F5)]H[Orn]VL[Abu]QLSAH[Orn]LLQDI[Nle][dR][hArg]-NH2)				0.53	
0.17	CCCC[C@H](NC(=O)[C@@H](NC(=O)[C@H](CC(=O)O)NC(=O)[C@H](CCC(N)=O)NC(=O)[C@H](CC(C)C)NC(=O)[C@H](CC(C)C)NC(=O)[C@H](CCCN)NC(=O)[C@H](Cc1c[nH]cn1)NC(=O)[C@H](C)NC(=O)[C@H](CO)NC(=O)[C@H](CC(C)C)NC(=O)[C@H](CCC(N)=O)NC(=O)[C@H](CC)NC(=O)[C@H](CC(C)C)NC(=O)[C@@H](NC(=O)[C@H](CCCN)NC(=O)[C@H](Cc1c[nH]cn1)NC(=O)[C@H](Cc1c(F)c(F)c(F)c(F)c1F)NC(=O)[C@H](CCCCNC(=N)N)NC(=O)[C@H](C)NC(=O)[C@@H](NC(=O)[C@H](Cc1ccc(Cl)cc1)NC(=O)[C@@H](NC(=O)[C@H](C)NC(=O)[C@H](CC(=O)O)NC(=O)[C@@H](CCCNC(=N)N)NC(=O)[C@H](Cc1ccc(O)cc1)NC(=O)CCCCCCCCCCCNC(=O)Cc1c(F)c(F)c(F)c(F)c1F)[C@@H](C)CC)[C@@H](C)O)C(C)C)[C@@H](C)CC)C(=O)N[C@H](CCCNC(=N)N)C(=O)N[C@@H](CCCCNC(=N)N)C(=O)NCCCCCCCCCCCC(N)=O [AVR-552, 5FPhAC-Ada-Tyr-DArg-Asp-Ala-Ile-Cpa-Thr-Ala-Har-5FPhe-His-Orn-Val-Leu-Abu-Gln-Leu-Ser-Ala-His-Orn-Leu-Leu-Gln-Asp-Ile-Nle-DArg-Har-Ada-NH2] ({Phenylacetyl(2,3,4,5,6-F5)-12Ado}-Y[dR]DAI[Phe(4-Cl)]TA[hArg][Phe(F5)]H[Orn]VL[Abu]QLSAH[Orn]LLQDI[Nle][dR][hArg][12Ado]-NH2)	4.376	1.57			higher binding affinity in comparison to MIA-602; also recorded: highest binding affinities
